# From US8158821B2, “Crystal of 5-aminolevulinic acid phosphate and process for producing the same” (priority 2006, dated 2012)
# Key:
# [1] = Thermal stability test (increase in PDPA content on heating, by liquid chromatography); type: physicochemical; settings: for Increase in PDPA concentration in solid: heating time 96 hr, phosphate
# Method: With regard to 5-aminolevulinic acid phosphate, 1 g of each of the powder obtained by a conventional method (the method described in Example 1 of WO2005/100300 pamphlet) and the crystal obtained in Example 1 was weighed out and allowed to stand under each condition shown in Table 3. The amount of 2,5-pyrazinedipropionic acid (PDPA), which is an impurity generated by heating and a compound formed by dimerization of 5-aminolevulinic acid molecules, was measured by liquid chromatography. An increase in the content of PDPA in 5-aminolevulinic acid phosphate was calculated and thermal stability as a substance was evaluated.
# Analytical conditions for liquid chromatography: separation column: μBondasphere C18 5μ 100 Å manufactured by Waters, eluent: a mixture of 2% aqueous acetic acid solution and methanol in a volume ratio of 90/10, flow rate: 1.0 mL/min, injection amount of sample: 50 μl, column temperature: 40° C., detector: UV detector (276 nm).
# [2] = Test on moisture absorption resistance (change in mass on standing at 25° C. and 90% RH); type: physicochemical; settings: for ratio of change in mass: 25° C., 90% RH, 1 g solid, phosphate
# Method: With regard to 5-aminolevulinic acid phosphate, moisture absorption resistance was evaluated by weighing out 1 g of each of the powder obtained by a conventional method (the method described in Example 1 of WO2005/100300 pamphlet) and the crystal obtained in Example 1, allowing it to stand under conditions of 25° C. and 90% RH, subsequently measuring mass after the passage of each period of time, and calculating a ratio of change in mass.
SMILES,"thermal stability (in words) ([1]; as compared with the conventional powder, Table 3)",Increase in PDPA concentration in solid ([1]; heating temperature 30° C.),Increase in PDPA concentration in solid ([1]; heating temperature 60° C.),ratio of change in mass ([2]; time passed 1 hr),ratio of change in mass ([2]; time passed 3 hr),ratio of change in mass ([2]; time passed 5 hr),ratio of change in mass ([2]; time passed 6 hr),ratio of change in mass ([2]; time passed 7 hr),ratio of change in mass ([2]; time passed 24 hr),"moisture absorption resistance (in words) ([2]; as compared with the conventional powder, Table 2)"
"NCC(=O)CCC(=O)O.O=P(O)(O)O [Crystal, 5-aminolevulinic acid phosphate]",excellent in thermal stability,+0 ppm,−0 ppm,+0.05%,+0.06%,+0.09%,+0.08%,+0.09%,+0.4%,excellent in moisture absorption resistance
"NCC(=O)CCC(=O)O.O=P(O)(O)O [Powder, 5-aminolevulinic acid phosphate]",,+10 ppm,+302 ppm,+6%,+11%,+14%,+16%,+17%,+21%,
